According to PubChem BioAssay AID1963450 (Molecular Pharmacology Branch, DTP, NCI, 2024):

Tested on: 556581-035-R-J1-PDC complex spheroid growth
Assay: Anticancer human tumor 556581-035-R-J1-PDC patient-derived ovarian carcinoma cell line growth inhibition [Asc]
Details: for IC50: curve of first compound; for viability, T/C: stronger effect = lower value
Outline: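 Tumor cells were grown as multicellular spheroids with stromal HUVEC and mesenchymal stem cells and treated singly or in combination. Concentrations fell in half-log steps from the clinical Cmax, or from 10 microM where none was known.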

[1] = second compound 0.03 µM, first compound 0.0316 µM
[2] = second compound 0.03 µM, first compound 0.1 µM
[3] = second compound 0.03 µM, first compound 0.316 µM
[4] = second compound 0.03 µM, first compound 1 µM
[5] = second compound 0.03 µM, first compound 3.16 µM
[6] = second compound 0.03 µM, first compound 10 µM
[7] = second compound 0.0949 µM, first compound 0.0316 µM
[8] = second compound 0.0949 µM, first compound 0.1 µM
[9] = second compound 0.0949 µM, first compound 0.316 µM
[10] = second compound 0.0949 µM, first compound 1 µM
[11] = second compound 0.0949 µM, first compound 3.16 µM
[12] = second compound 0.0949 µM, first compound 10 µM
[13] = second compound 0.3 µM, first compound 0.0316 µM
[14] = second compound 0.3 µM, first compound 0.1 µM
[15] = second compound 0.3 µM, first compound 0.316 µM
[16] = second compound 0.3 µM, first compound 1 µM
[17] = second compound 0.3 µM, first compound 3.16 µM
[18] = second compound 0.3 µM, first compound 10 µM
[19] = second compound 0.949 µM, first compound 0.0316 µM
[20] = second compound 0.949 µM, first compound 0.1 µM
[21] = second compound 0.949 µM, first compound 0.316 µM
[22] = second compound 0.949 µM, first compound 1 µM
[23] = second compound 0.949 µM, first compound 3.16 µM
[24] = second compound 0.949 µM, first compound 10 µM
[25] = second compound 3 µM, first compound 0.0316 µM
[26] = second compound 3 µM, first compound 0.1 µM
[27] = second compound 3 µM, first compound 0.316 µM
[28] = second compound 3 µM, first compound 1 µM
[29] = second compound 3 µM, first compound 3.16 µM
[30] = second compound 3 µM, first compound 10 µM
[31] = second compound 0.03 µM, first compound 0.00316 µM
[32] = second compound 0.03 µM, first compound 0.01 µM
[33] = second compound 0.0949 µM, first compound 0.00316 µM
[34] = second compound 0.0949 µM, first compound 0.01 µM
[35] = second compound 0.3 µM, first compound 0.00316 µM
[36] = second compound 0.3 µM, first compound 0.01 µM
[37] = second compound 0.949 µM, first compound 0.00316 µM
[38] = second compound 0.949 µM, first compound 0.01 µM
[39] = second compound 3 µM, first compound 0.00316 µM
[40] = second compound 3 µM, first compound 0.01 µM
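Further: spheroids exposed to agents for 7 days before viability read.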

| SMILES | IC50 (second compound 0.03 µM) | IC50 (second compound 0.0949 µM) | IC50 (second compound 0.3 µM) | IC50 (second compound 0.949 µM) | IC50 (second compound 3 µM) | viability, T/C [1] | viability, T/C [2] | viability, T/C [3] | viability, T/C [4] | viability, T/C [7] | viability, T/C [8] | viability, T/C [9] | viability, T/C [10] | viability, T/C [13] | viability, T/C [14] | viability, T/C [15] | viability, T/C [16] | viability, T/C [19] | viability, T/C [20] | viability, T/C [21] | also measured |
| --- | --- | --- | --- | --- | --- | --- | --- | --- | --- | --- | --- | --- | --- | --- | --- | --- | --- | --- | --- | --- | --- |
| C#Cc1c(F)ccc2cc(O)cc(-c3ncc4c(N5CC6CCC(C5)N6)nc(OCC56CCCN5CC(F)C6)nc4c3F)c12 (stereo not given) + CCN1C(C(=O)NC23CCC(C(=O)O)(CC2)CC3)C(c2cccc(Cl)c2F)C2(C(=O)Nc3cc(Cl)ccc32)C12CCCCC2 | > 10 µM | > 10 µM | > 10 µM | > 10 µM | > 10 µM | 98.9% | 86% | 102% | 89.6% | 105% | 83.2% | 93.9% | 79.5% | 80.2% | 66.7% | 75% | 86.1% | 86.6% | 80.3% | 85.7% | viability, T/C [5]: 96.7%; viability, T/C [6]: 89.6%; viability, T/C [11]: 91%; viability, T/C [12]: 61.9%; viability, T/C [17]: 83.3%; viability, T/C [18]: 61.8%; viability, T/C [22]: 74.9%; viability, T/C [23]: 76.3%; viability, T/C [24]: 78.5%; viability, T/C [25]: 95.8%; viability, T/C [26]: 102%; viability, T/C [27]: 76%; viability, T/C [28]: 78%; viability, T/C [29]: 70.1%; viability, T/C [30]: 78.6% |
| C=C(F)C(=O)N1CCN(c2nc(OCC3CCCN3C)nc3c2CCN(c2cccc4cccc(Cl)c24)C3)CC1CC#N (stereo not given) + CCN1C(C(=O)NC23CCC(C(=O)O)(CC2)CC3)C(c2cccc(Cl)c2F)C2(C(=O)Nc3cc(Cl)ccc32)C12CCCCC2 | 3.8 µM | 3.86 µM | 3.88 µM | 4.39 µM | 2.67 µM | 92.1% | 97.3% | 112% | 94.5% | 114% | 102% | 90.8% | 87.8% | 103% | 92.5% | 103% | 81.6% | 91.7% | 99.2% | 98.3% | viability, T/C [5]: 59%; viability, T/C [6]: 3.04%; viability, T/C [11]: 62.5%; viability, T/C [12]: 3.7%; viability, T/C [17]: 61.4%; viability, T/C [18]: 3.01%; viability, T/C [22]: 84.9%; viability, T/C [23]: 65.6%; viability, T/C [24]: 12.3%; viability, T/C [25]: 89.8%; viability, T/C [26]: 105%; viability, T/C [27]: 92.5%; viability, T/C [28]: 79.2%; viability, T/C [29]: 45.2%; viability, T/C [30]: 2.9% |
| C=CC(=O)N1CCN(c2nc(=O)n(-c3c(C)ccnc3C(C)C)c3nc(-c4c(O)cccc4F)c(F)cc23)C(C)C1 (stereo not given) + CCN1C(C(=O)NC23CCC(C(=O)O)(CC2)CC3)C(c2cccc(Cl)c2F)C2(C(=O)Nc3cc(Cl)ccc32)C12CCCCC2 | > 10 µM | > 10 µM | > 10 µM | > 10 µM | > 10 µM | 96.1% | 98.7% | 95.1% | 102% | 102% | 99.1% | 104% | 88% | 102% | 103% | 101% | 86.6% | 113% | 95.6% | 119% | viability, T/C [5]: 94.3%; viability, T/C [6]: 94.4%; viability, T/C [11]: 117%; viability, T/C [12]: 99.4%; viability, T/C [17]: 116%; viability, T/C [18]: 103%; viability, T/C [22]: 115%; viability, T/C [23]: 109%; viability, T/C [24]: 103%; viability, T/C [25]: 93.2%; viability, T/C [26]: 87.5%; viability, T/C [27]: 96%; viability, T/C [28]: 96.5%; viability, T/C [29]: 103%; viability, T/C [30]: 84.8% |
| CNC(C)C(=O)NC1CN(S(=O)(=O)c2cccc(S(=O)(=O)N3CCC4CCC(C(=O)NC(c5ccccc5)c5ccccc5)N4C(=O)C(NC(=O)C(C)NC)C3)c2)CCC2CCC(C(=O)NC(c3ccccc3)c3ccccc3)N2C1=O (stereo not given) + CCN1C(C(=O)NC23CCC(C(=O)O)(CC2)CC3)C(c2cccc(Cl)c2F)C2(C(=O)Nc3cc(Cl)ccc32)C12CCCCC2 | > 1 µM | > 1 µM | > 1 µM | > 1 µM | > 1 µM | 97.9% | 76.4% | 61.8% | 54.3% | 87% | 76.8% | 65.6% | 60.5% | 106% | 77.3% | 73% | 57.1% | 93.9% | 66.8% | 65.1% | viability, T/C [31]: 94.8%; viability, T/C [32]: 82.8%; viability, T/C [33]: 88.3%; viability, T/C [34]: 98.8%; viability, T/C [35]: 108%; viability, T/C [36]: 97.5%; viability, T/C [37]: 85.5%; viability, T/C [38]: 81.2%; viability, T/C [22]: 65.5%; viability, T/C [39]: 105%; viability, T/C [40]: 94.6%; viability, T/C [25]: 78.7%; viability, T/C [26]: 70.8%; viability, T/C [27]: 63.3%; viability, T/C [28]: 60.5% |
| COc1c(OCCCN2CCOCC2)ccc2c3n(c(=NC(=O)c4cnc(N)nc4)nc12)CCN3 + CCN1C(C(=O)NC23CCC(C(=O)O)(CC2)CC3)C(c2cccc(Cl)c2F)C2(C(=O)Nc3cc(Cl)ccc32)C12CCCCC2 | 0.0589 µM | 0.0427 µM | 0.0394 µM | 0.0511 µM | 0.0333 µM | 59.2% | 43.3% | 20% | 13.4% | 51.7% | 39.3% | 25.7% | 13.5% | 50.2% | 39% | 22.5% | 15.4% | 58.2% | 40.2% | 21.6% | viability, T/C [31]: 71.9%; viability, T/C [32]: 65.5%; viability, T/C [33]: 78.3%; viability, T/C [34]: 70.1%; viability, T/C [35]: 76.7%; viability, T/C [36]: 70%; viability, T/C [37]: 78.3%; viability, T/C [38]: 75.2%; viability, T/C [22]: 45.8%; viability, T/C [39]: 62.2%; viability, T/C [40]: 57.9%; viability, T/C [25]: 46.7%; viability, T/C [26]: 45.5%; viability, T/C [27]: 27.5%; viability, T/C [28]: 14.6% |
